Data from US8822447B2, “Indazole compounds useful as ketohexokinase inhibitors” (Janssen Pharmaceutica NV, priority 2010, dated 2014).
Structures can show the parent of a compound that is named as a salt.

Biological target: KHK (Homo sapiens (Human), UniProt P50053)
Experiment: In Vitro KHK Enzyme Assay (HTMS);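 further: primary screen measuring inhibition of KHK-catalysed conversion of D-fructose into fructose 1-phosphate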
Type: biochemical
Details: 200 μM fructose, 100 μM ATP, 2 nM KHK, 60 min at 25° C.; Fructose-1-P detected by high throughput mass spectrometry

Sequence of KHK (P50053 whole entry): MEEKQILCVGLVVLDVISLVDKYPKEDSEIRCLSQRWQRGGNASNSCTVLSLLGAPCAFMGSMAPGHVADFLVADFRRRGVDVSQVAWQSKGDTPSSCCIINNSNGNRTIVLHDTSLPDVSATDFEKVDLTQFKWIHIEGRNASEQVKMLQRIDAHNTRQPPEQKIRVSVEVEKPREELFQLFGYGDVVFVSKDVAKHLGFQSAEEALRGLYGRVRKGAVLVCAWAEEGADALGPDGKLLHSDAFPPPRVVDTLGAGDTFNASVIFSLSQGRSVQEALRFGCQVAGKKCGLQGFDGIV

IC50	SMILES
680 nM	CSc1nn(-c2ccccc2)c2cc(N3CCN(C4CCNCC4)CC3)ccc12 [Compound 23, 3-(Methylthio)-1-phenyl-6-(4-(piperidin-4-yl)piperazin-1-yl)-1H-indazole hydrochloride]
1560 nM	CSc1nn(-c2ccccc2)c2cc(N3CCN(c4ccccn4)CC3)ccc12 [Compound 24, 3-(Methylthio)-1-phenyl-6-(4-(pyridin-2-yl)piperazin-1-yl)-1H-indazole]
460 nM	CSc1nn(-c2ccccc2)c2cc(N3CCN(C4CCNC4)C3=O)ccc12 (stereo not shown) [Compound 25, 1-(3-(Methylthio)-1-phenyl-1H-indazol-6-yl)-3-(pyrrolidin-3-yl)imidazolidin-2-one hydrochloride]
1470 nM	CSc1nn(-c2ccccc2)c2cc(N3CCN(C4CCNCC4)C3=O)ccc12 [Compound 26, 1-(3-(Methylthio)-1-phenyl-1H-indazol-6-yl)-3-(piperidin-4-yl)imidazolidin-2-one hydrochloride]
5170 nM	CSc1nn(-c2ccccc2)c2cc(N3CCN(CC4CCNC4)C3=O)ccc12 (stereo not shown) [Compound 27, 1-(3-(Methylthio)-1-phenyl-1H-indazol-6-yl)-3-(pyrrolidin-3-ylmethyl)imidazolidin-2-one hydrochloride]
3040 nM	CSc1nn(-c2ccccc2)c2cc(N3CCN(CC4CCCNC4)C3=O)ccc12 (stereo not shown) [Compound 28, 1-(3-(Methylthio)-1-phenyl-1H-indazol-6-yl)-3-(piperidin-3-ylmethyl)imidazolidin-2-one hydrochloride]
300 nM	CSc1nn(-c2ccccc2)c2cc(N3CCN(c4ccncc4)CC3)ccc12 [Compound 29, 3-(Methylthio)-1-phenyl-6-(4-(pyridin-4-yl)piperazin-1-yl)-1H-indazole]
16400 nM	CSc1nn(-c2ccccc2)c2cc(N3CCN(C(=O)c4ccccn4)CC3)ccc12 [Compound 30]
4950 nM	CSc1nn(-c2ccccc2)c2cc(N3CCN(C(=O)c4cccnc4)CC3)ccc12 [Compound 31, (4-(3-(Methylthio)-1-phenyl-1H-indazol-6-yl)piperazin-1-yl)(pyridin-3-yl)methanone]
6060 nM	CSc1nn(-c2ccccc2)c2cc(N3CCN(Cc4cccnc4)CC3)ccc12 [Compound 32, 3-(Methylthio)-1-phenyl-6-(4-(pyridin-3-ylmethyl)piperazin-1-yl)-1H-indazole hydrochloride]

Further lines, the compound ahead of its results:

SMILES	IC50
CSc1nn(-c2ccccc2)c2cc(N3CCNCC3)ccc12 [Compound 1, 3-(Methylsulfanyl)-1-phenyl-6-piperazin-1-yl-1H-indazole HCl salt]	560 nM
CSc1nn(-c2ccccc2)c2cc(NC(=O)C3CNC3)ccc12 [Compound 2, N-(3-(Methylthio)-1-phenyl-1H-indazol-6-yl)azetidine-3-carboxamide hydrochloride]	220 nM
CSc1nn(-c2ccccc2)c2cc(NC(=O)CC3CCCCN3)ccc12 (stereo not shown) [Compound 3, N-(3-(Methylthio)-1-phenyl-1H-indazol-6-yl)-2-(piperidin-2-yl)acetamide hydrochloride]	860 nM
CSc1nn(-c2ccccc2)c2cc(NC(=O)NC3CCNC3)ccc12 (stereo not shown) [Compound 4, 1-(3-(Methylthio)-1-phenyl-1H-indazol-6-yl)-3-(pyrrolidin-3-yl)urea hydrochloride]	450 nM
CSc1nn(-c2ccccc2)c2cc(NC(=O)C3CCNC3)ccc12 (stereo not shown) [Compound 5, N-(3-(Methylthio)-1-phenyl-1H-indazol-6-yl)pyrrolidine-3-carboxamide hydrochloride]	590 nM
CSc1nn(-c2ccccc2)c2cc(NC(=O)NC3CCNCC3)ccc12 [Compound 7, 1-(3-(Methylthio)-1-phenyl-1H-indazol-6-yl)-3-(piperidin-4-yl)urea hydrochloride]	700 nM
CSc1nn(-c2ccccc2)c2cc(NC(=O)c3ccncc3)ccc12 [Compound 8, N-(3-Methylsulfanyl-1-phenyl-1H-indazol-6-yl)-isonicotinamide]	1010 nM
CSc1nn(-c2ccccc2)c2cc(NC(=O)Cc3ccncc3)ccc12 [Compound 9, N-(3-(Methylthio)-1-phenyl-1H-indazol-6-yl)-2-(pyridin-4-yl)acetamide]	2680 nM
CSc1nn(-c2ccccc2)c2cc(N3CC4CC3CN4)ccc12 (stereo not shown) [Compound 10, 2-(3-(methylthio)-1-phenyl-1H-indazol-6-yl)-2,5-diaza-bicyclo[2.2.1]heptane hydrochloride]	710 nM
CSc1nn(-c2ccccc2)c2cc(N3CCCNCC3)ccc12 [Compound 11, 6-(1,4-Diazepan-1-yl)-3-(methylthio)-1-phenyl-1H-indazole hydrochloride]	540 nM
CSc1nn(-c2ccccc2)c2cc(NC(=O)C3CCCNC3)ccc12 (stereo not shown) [Compound 12, N-(3-(Methylthio)-1-phenyl-1H-indazol-6-yl)piperidine-3-carboxamide hydrochloride]	310 nM
CSc1nn(-c2ccccc2)c2cc(NC(=O)C3CCCN3)ccc12 (stereo not shown) [Compound 13, N-(3-(Methylthio)-1-phenyl-1H-indazol-6-yl)pyrrolidine-2-carboxamide hydrochloride]	260 nM
CSc1nn(-c2ccccc2)c2cc(NC(=O)c3cccnc3)ccc12 [Compound 14, N-(3-(Methylthio)-1-phenyl-1H-indazol-6-yl)nicotinamide]	230 nM
CSc1nn(-c2ccccc2)c2cc(N3CC(N4CCNCC4)C3)ccc12 [Compound 15, 3-(Methylthio)-1-phenyl-6-(3-(piperazin-1-yl)azetidin-1-yl)-1H-indazole hydrochloride]	560 nM
CSc1nn(-c2ccccc2)c2cc(N3CCN(C(=O)C4CCCNC4)CC3)ccc12 (stereo not shown) [Compound 16, 4-(3-Methylsulfanyl-1-phenyl-1H-indazol-6-yl)-piperazin-1-yl]-piperidin-3-yl-methanone hydrochloride]	2890 nM
CSc1nn(-c2ccccc2)c2cc(N3CCN(C(=O)c4ccncc4)CC3)ccc12 [Compound 17, (4-(3-(Methylthio)-1-phenyl-1H-indazol-6-yl)piperazin-1-yl)(pyridin-4-yl)methanone]	2030 nM
CSc1nn(-c2ccccc2)c2cc(N3CCN(Cc4ccncc4)CC3)ccc12 [Compound 18, 3-Methylsulfanyl-1-phenyl-6-(4-pyridin-4-ylmethyl-piperazin-1-yl)-1H-indazole Hydrochloride]	2030 nM
CSc1nn(-c2ccccc2)c2cc(N3CCC(N4CCNCC4)C3)ccc12 (stereo not shown) [Compound 19, 3-(Methylthio)-1-phenyl-6-(3-(piperazin-1-yl)pyrrolidin-1-yl)-1H-indazole hydrochloride]	560 nM
CSc1nn(-c2ccccc2)c2cc(N3CCC(N4CCNCC4)CC3)ccc12 [Compound 20, 3-(Methylthio)-1-phenyl-6-(4-(piperazin-1-yl)piperidin-1-yl)-1H-indazole hydrochloride]	670 nM
CSc1nn(-c2ccccc2)c2cc(N3CCN(C4CNC4)CC3)ccc12 [Compound 21, 6-(4-(Azetidin-3-yl)piperazin-1-yl)-3-(methylthio)-1-phenyl-1H-indazole hydrochloride]	2820 nM
CSc1nn(-c2ccccc2)c2cc(N3CCN(C4CCNC4)CC3)ccc12 (stereo not shown) [Compound 22, 3-(Methylthio)-1-phenyl-6-(4-(pyrrolidin-3-yl)piperazin-1-yl)-1H-indazole hydrochloride]	4450 nM
